Test systems include MALME-3M melanoma; MCF7 breast; SK-MEL-28 melanoma; 786-0 renal; PC-3 prostate; LOX IMVI melanoma; HL-60(TB) leukemia; MOLT-4 leukemia.
Holding throughout (experiment): NCI anticancer screen, dose series, 48 h

“And” between values parts separate entries of the source, which are not always exact repeats. Identical values can stand only once.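 How tested: cells in 96-well plates exposed to compound for 48 hours at five concentrations. Here, GI50 denotes the concentration required for 50% inhibition of growth. The concentration for full growth arrest is given as TGI.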 *1 amine or outer side, *2 acyl side, *3 side chain or, on linkers, in order; H or OH if unused. Where a SMILES comes first, the peptide text is derived from it. Bridges are numbered along the chain shown (N, C = ends). [ ]: non-standard residue; d: D form. The star is where a group is joined. Phe(3-Me) = Cc1cccc(C[C@H](N)C(=O)O)c1; NH(4-Cl-2-F-phenyl) = Fc1cc(Cl)ccc1N*; Pro(4R-Me) = C[C@H]1CN[C@H](C(=O)O)C1; Propanoyl(3-NMe2) = CN(C)CCC(=O)*; Hyp = O=C(O)[C@@H]1C[C@@H](O)CN1; aThr = C[C@H](O)[C@H](N)C(=O)O; Pip = O=C(O)[C@@H]1CCCCN1; CO = O=C([*:1])[*:2]

For the molecule `O=C1c2ccccc2C(=O)c2c1ccc1c2OCO1`, the TGI with MALME-3M melanoma, in the experiment on MCF7 breast, with SK-MEL-28 melanoma, in the experiment on 786-0 renal, with PC-3 prostate and in the experiment with LOX IMVI melanoma was over 100000 nM throughout. Further, the TGI in the experiment with HL-60(TB) leukemia and with MOLT-4 leukemia was over 100000 nM throughout.

For `C[C@@]1(N2C(=O)OC[C@@H]2c2ccccc2)C(=O)N([C@H](CC(=O)N2CCC(N3CCCCC3)CC2)C(=O)NCc2cccc(C(F)(F)F)c2)[C@@H]1/C=C/c1ccccc1`, the GI50 in the experiment with MALME-3M melanoma was 1830 nM; in the experiment on MCF7 breast it was 1850 nM; in the experiment with SK-MEL-28 melanoma, 1800 nM; with 786-0 renal it was 1810 nM; in the experiment on PC-3 prostate it was 4150 nM; in the experiment with LOX IMVI melanoma it was 1810 nM. For the same molecule, the GI50 in the experiment with HL-60(TB) leukemia is 2130 nM; with MOLT-4 leukemia, 2260 nM. Further, the TGI came to 3540 nM in the experiment on MALME-3M melanoma; 4240 nM in the experiment with MCF7 breast; 3510 nM with SK-MEL-28 melanoma; 3410 nM in the experiment on 786-0 renal; 15700 nM in the experiment with PC-3 prostate; 3500 nM in the experiment on LOX IMVI melanoma. The TGI was determined as 4650 nM in the experiment on HL-60(TB) leukemia and 6420 nM with MOLT-4 leukemia.

With `Nc1nc2c(c3cnccc13)C(c1cccc(Cl)c1)Cc1cnccc1-2` (stereo not given), the GI50 in the experiment on MALME-3M melanoma is 419 nM; with MCF7 breast, 292 nM; in the experiment on SK-MEL-28 melanoma it was 2600 nM; in the experiment with 786-0 renal it was 396 nM; with PC-3 prostate it was 439 nM; in the experiment on LOX IMVI melanoma, 373 nM. The figures for the GI50 with HL-60(TB) leukemia and in the experiment with MOLT-4 leukemia were 278 nM and 494 nM, respectively. For the same molecule, the TGI in the experiment with MALME-3M melanoma worked out at 17800 nM; in the experiment with MCF7 breast, 11600 nM; in the experiment on SK-MEL-28 melanoma, 20600 nM; in the experiment on 786-0 renal, 10600 nM; in the experiment with PC-3 prostate, 1660 nM; in the experiment on LOX IMVI melanoma, 11200 nM. In addition, the figures for the TGI in the experiment on HL-60(TB) leukemia and in the experiment with MOLT-4 leukemia were 5270 nM and 17300 nM, respectively.

As to `S=C(N/N=C(/c1ccccc1)c1ccccn1)Nc1cccc(Cl)c1`, the GI50 with MALME-3M melanoma is 16.9 nM; in the experiment on MCF7 breast, 5.44 nM; with SK-MEL-28 melanoma, 2090 nM; with 786-0 renal it was 675 nM; in the experiment on PC-3 prostate it was 26.4 nM; in the experiment with LOX IMVI melanoma, 729 nM. For the same molecule, the results for the GI50 with HL-60(TB) leukemia and in the experiment on MOLT-4 leukemia were 15.2 nM and 3.03 nM, respectively. Also, the TGI was 2220 nM and 5370 nM in the experiment on MALME-3M melanoma; 918 nM and 6010 nM with MCF7 breast; 7690 nM and 6180 nM in the experiment with SK-MEL-28 melanoma; 2510 nM and 5560 nM in the experiment on 786-0 renal; 7050 nM and 6710 nM in the experiment with PC-3 prostate; 3720 nM and > 34000 nM in the experiment on LOX IMVI melanoma. Also, the TGI in the experiment on HL-60(TB) leukemia came out at 162 nM.

For `CSc1nc2c(c(=O)[nH]1)C(c1ccc(Cl)cc1)C1=C(N2)/C(=C/c2ccc(Cl)cc2)CNC1` (stereo not given), the GI50 in the experiment on MALME-3M melanoma was 4410 nM; in the experiment on MCF7 breast it was 1940 nM; in the experiment with SK-MEL-28 melanoma it was 2300 nM; in the experiment on 786-0 renal, 2020 nM; in the experiment on PC-3 prostate it was 1990 nM; in the experiment with LOX IMVI melanoma it was 1900 nM. The GI50 with HL-60(TB) leukemia was 2440 nM; in the experiment on MOLT-4 leukemia it was 2450 nM. Besides, the TGI amounted to 19200 nM with MALME-3M melanoma; 5850 nM in the experiment on MCF7 breast; 6470 nM with SK-MEL-28 melanoma; 4460 nM in the experiment with 786-0 renal; 5100 nM with PC-3 prostate; 3810 nM in the experiment on LOX IMVI melanoma. Also, the TGI in the experiment on HL-60(TB) leukemia amounted to 6260 nM; with MOLT-4 leukemia, 11000 nM.

As to `Cc1cccc(C[C@H](NC(=O)Nc2ccc(Cl)cc2F)C(=O)N[C@@H]2C(=O)N3C[C@H](OC(=O)CCN(C)C)C[C@H]3C(=O)N3CCCC[C@H]3C(=O)N[C@@H](C)C(=O)N3C[C@H](C)C[C@H]3C(=O)O[C@H]2C)c1` ({NH(4-Cl-2-F-phenyl)-CO}-[Phe(3-Me)][aThr][Hyp](Propanoyl(3-NMe2))[Pip]A[Pro(4R-Me)]; ester 2-C), the GI50 is 567 nM in the experiment on MALME-3M melanoma; 394 nM in the experiment on MCF7 breast; 706 nM with SK-MEL-28 melanoma; 1390 nM in the experiment on 786-0 renal; 368 nM in the experiment with PC-3 prostate; 683 nM with LOX IMVI melanoma. In addition, the GI50 with HL-60(TB) leukemia is 354 nM; with MOLT-4 leukemia it was 811 nM. The TGI turned out to be 1970 nM with MALME-3M melanoma; 1830 nM in the experiment with MCF7 breast; 2100 nM in the experiment with SK-MEL-28 melanoma; 5660 nM with 786-0 renal; 1760 nM in the experiment on PC-3 prostate; 2200 nM in the experiment on LOX IMVI melanoma. Also, the results for the TGI in the experiment with HL-60(TB) leukemia and in the experiment with MOLT-4 leukemia were 1900 nM and 4650 nM, respectively.

For the molecule `CC(=O)Nc1sc2c(c1-c1nc3ccccc3s1)CNC2`, the GI50 in the experiment with MALME-3M melanoma is 2210 nM; in the experiment on MCF7 breast, 865 nM; in the experiment with SK-MEL-28 melanoma, 2940 nM; in the experiment with 786-0 renal, 2610 nM; in the experiment on PC-3 prostate, 3370 nM; in the experiment with LOX IMVI melanoma, 1670 nM. Further, the GI50 is 2840 nM with HL-60(TB) leukemia and 2030 nM in the experiment on MOLT-4 leukemia. For the same molecule, the TGI in the experiment on MALME-3M melanoma is 8750 nM; with MCF7 breast it was 7880 nM; in the experiment with SK-MEL-28 melanoma, 9930 nM; in the experiment on 786-0 renal, 9600 nM; with PC-3 prostate, 18400 nM; with LOX IMVI melanoma it was 6740 nM. Further, the results for the TGI with HL-60(TB) leukemia and with MOLT-4 leukemia were 11600 nM and 9200 nM, respectively.

With `CC/C=C\C/C=C\C[C@H]1C/C=C2/C(=O)C=C[C@H]2C/C=C\CCC(=O)O1`, the GI50 with MALME-3M melanoma is 2850 nM; in the experiment on MCF7 breast it was 824 nM; in the experiment with SK-MEL-28 melanoma, 3120 nM; in the experiment with 786-0 renal, 3130 nM; in the experiment on PC-3 prostate, 3390 nM; with LOX IMVI melanoma, 2340 nM. In addition, the GI50 was 3550 nM with HL-60(TB) leukemia and 3480 nM in the experiment with MOLT-4 leukemia. Moreover, the TGI in the experiment with MALME-3M melanoma is 8800 nM; with MCF7 breast it was 11800 nM; in the experiment on SK-MEL-28 melanoma, 8010 nM; with 786-0 renal it was 7450 nM; in the experiment with PC-3 prostate, 12500 nM; in the experiment with LOX IMVI melanoma it was 4780 nM. For the same molecule, the TGI was 12200 nM with HL-60(TB) leukemia and 10500 nM with MOLT-4 leukemia.

On to `COc1cc2c3c(c4c5ccccc5[nH]c4c2c(OC)c1OC)C(=O)N(CCN1CCCCC1)C3=O`, for which the GI50 was 1360 nM in the experiment with MALME-3M melanoma; 734 nM in the experiment with MCF7 breast; 1740 nM in the experiment on SK-MEL-28 melanoma; 1270 nM in the experiment with 786-0 renal; 1220 nM in the experiment on PC-3 prostate; 1050 nM in the experiment on LOX IMVI melanoma. In addition, the GI50 was 8150 nM with HL-60(TB) leukemia and 536 nM in the experiment on MOLT-4 leukemia. Also, the TGI amounted to 2850 nM in the experiment on MALME-3M melanoma; 3090 nM with MCF7 breast; 3320 nM in the experiment with SK-MEL-28 melanoma; 2870 nM in the experiment with 786-0 renal; 2640 nM in the experiment with PC-3 prostate; 2450 nM in the experiment with LOX IMVI melanoma. For the same molecule, the TGI in the experiment on HL-60(TB) leukemia was over 41000 nM; in the experiment with MOLT-4 leukemia it was 9230 nM.

(Values after PubChem BioAssay (NCI).)
